For assay [1], the target named is T1, TRAF2 and NCK-interacting protein kinase (Homo sapiens, UniProt Q9UKE5). Briefly: Inhibition of human full length TNIK(1-1360)-G5-Avi-6His-Flag expressed in baculovirus-infected sf21 cells using His6-SMAD1 as substrate preincubated for 30 mins followed by substrate addition and measured after 120 mins by ADP-Glo Reagent based method. On the technique in general: In ADP-Glo the light output rises with the ADP produced.
Target sequence in this assay (Q9UKE5 whole entry): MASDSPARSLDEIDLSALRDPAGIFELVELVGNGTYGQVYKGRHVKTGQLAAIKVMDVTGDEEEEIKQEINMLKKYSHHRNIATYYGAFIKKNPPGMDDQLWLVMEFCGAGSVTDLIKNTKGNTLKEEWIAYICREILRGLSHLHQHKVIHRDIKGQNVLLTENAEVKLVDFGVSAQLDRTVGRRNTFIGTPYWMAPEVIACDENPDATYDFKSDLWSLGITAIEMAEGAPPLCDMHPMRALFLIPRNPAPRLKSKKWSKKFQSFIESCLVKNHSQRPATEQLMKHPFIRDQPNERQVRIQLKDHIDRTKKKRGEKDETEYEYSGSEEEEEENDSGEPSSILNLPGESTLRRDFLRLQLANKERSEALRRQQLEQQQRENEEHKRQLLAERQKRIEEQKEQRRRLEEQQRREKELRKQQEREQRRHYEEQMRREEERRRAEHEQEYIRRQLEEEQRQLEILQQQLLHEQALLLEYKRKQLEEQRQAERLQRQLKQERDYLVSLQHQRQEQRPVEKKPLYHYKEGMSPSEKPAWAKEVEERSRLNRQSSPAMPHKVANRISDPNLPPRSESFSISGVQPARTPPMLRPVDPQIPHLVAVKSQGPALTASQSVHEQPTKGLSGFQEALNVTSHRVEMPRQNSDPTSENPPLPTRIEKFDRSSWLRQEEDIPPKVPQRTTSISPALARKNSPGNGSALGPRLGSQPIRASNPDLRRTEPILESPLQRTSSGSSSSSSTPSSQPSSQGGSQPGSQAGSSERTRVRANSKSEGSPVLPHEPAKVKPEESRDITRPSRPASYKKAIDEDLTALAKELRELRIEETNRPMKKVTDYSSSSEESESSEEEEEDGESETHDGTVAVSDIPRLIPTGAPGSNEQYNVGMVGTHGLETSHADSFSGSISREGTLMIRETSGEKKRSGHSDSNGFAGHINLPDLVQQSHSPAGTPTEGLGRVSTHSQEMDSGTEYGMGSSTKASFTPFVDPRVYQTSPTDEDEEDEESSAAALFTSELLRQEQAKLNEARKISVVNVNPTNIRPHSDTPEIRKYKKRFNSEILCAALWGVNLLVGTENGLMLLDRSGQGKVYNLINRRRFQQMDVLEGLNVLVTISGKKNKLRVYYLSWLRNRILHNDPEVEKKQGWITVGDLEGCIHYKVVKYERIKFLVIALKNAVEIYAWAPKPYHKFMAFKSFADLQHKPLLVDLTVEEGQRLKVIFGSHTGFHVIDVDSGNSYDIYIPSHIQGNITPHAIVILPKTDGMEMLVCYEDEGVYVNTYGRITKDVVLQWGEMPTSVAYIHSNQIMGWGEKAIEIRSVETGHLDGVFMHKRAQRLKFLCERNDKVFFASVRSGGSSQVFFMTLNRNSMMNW

Assay [2] has as its target T1, TRAF2 and NCK-interacting protein kinase. Briefly: Inhibition of human full length TNIK in HEK293 cells co-transfected with full length SMAD1 incubated for 2 hrs by ELISA. The class given is cell-based. A general note: An ELISA detects its analyte on a solid surface through an enzyme-linked reagent.
Target sequence in this assay (Q9UKE5 whole entry): as above
The target of assay [3] is T2, Mitogen-activated protein kinase kinase kinase kinase 4 (Homo sapiens, UniProt O95819). Briefly: Inhibition of human 6His-TEV-SHM-MAP4K4(2 to 328)-GNS expressed in baculovirus-infected sf21 cells using LRRKtide as substrate preincubated for 30 mins followed by substrate addition and measured after 75 to 90 mins by ADP-Glo Reagent based method.
Target sequence in this assay (O95819 whole entry): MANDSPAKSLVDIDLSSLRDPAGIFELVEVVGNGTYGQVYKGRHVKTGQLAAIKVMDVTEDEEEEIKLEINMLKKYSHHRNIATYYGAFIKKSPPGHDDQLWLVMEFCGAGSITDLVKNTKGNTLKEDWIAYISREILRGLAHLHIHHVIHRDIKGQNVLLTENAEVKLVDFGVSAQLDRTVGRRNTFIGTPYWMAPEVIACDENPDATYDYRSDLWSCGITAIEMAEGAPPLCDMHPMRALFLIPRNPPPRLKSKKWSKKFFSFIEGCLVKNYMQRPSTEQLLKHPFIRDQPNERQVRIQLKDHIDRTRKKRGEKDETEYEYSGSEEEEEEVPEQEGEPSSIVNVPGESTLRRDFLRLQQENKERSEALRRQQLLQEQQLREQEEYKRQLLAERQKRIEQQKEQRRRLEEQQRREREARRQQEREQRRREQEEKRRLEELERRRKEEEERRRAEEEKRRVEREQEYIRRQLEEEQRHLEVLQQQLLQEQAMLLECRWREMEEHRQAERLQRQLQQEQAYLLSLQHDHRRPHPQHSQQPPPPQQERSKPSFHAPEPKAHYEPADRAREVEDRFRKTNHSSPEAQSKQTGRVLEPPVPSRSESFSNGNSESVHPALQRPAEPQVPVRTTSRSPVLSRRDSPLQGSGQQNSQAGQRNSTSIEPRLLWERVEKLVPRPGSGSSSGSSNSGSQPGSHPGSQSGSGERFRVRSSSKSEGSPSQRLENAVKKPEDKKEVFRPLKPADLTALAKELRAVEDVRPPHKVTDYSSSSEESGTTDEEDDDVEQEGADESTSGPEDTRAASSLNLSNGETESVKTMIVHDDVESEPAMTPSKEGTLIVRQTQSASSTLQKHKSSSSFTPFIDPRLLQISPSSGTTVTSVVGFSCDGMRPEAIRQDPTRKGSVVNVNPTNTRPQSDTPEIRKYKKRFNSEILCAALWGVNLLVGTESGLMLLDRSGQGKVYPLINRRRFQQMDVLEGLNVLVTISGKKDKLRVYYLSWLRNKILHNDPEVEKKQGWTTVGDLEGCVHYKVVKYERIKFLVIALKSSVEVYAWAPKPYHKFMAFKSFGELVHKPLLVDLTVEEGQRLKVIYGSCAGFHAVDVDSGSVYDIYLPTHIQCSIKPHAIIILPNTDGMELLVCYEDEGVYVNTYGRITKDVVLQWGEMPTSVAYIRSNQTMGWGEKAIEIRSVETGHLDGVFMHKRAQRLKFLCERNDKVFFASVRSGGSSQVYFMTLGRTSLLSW
The target of assay [4] is T1, TRAF2 and NCK-interacting protein kinase. In words: Inhibition of human 6His-TEV-TNIK(1 to 325) expressed in baculovirus-infected sf21 cells using LRRKtide as substrate preincubated for 30 mins followed by substrate addition and measured after 75 to 90 mins by ADP-Glo Reagent based method.
Target sequence in this assay (Q9UKE5 whole entry): as the sequence (Q9UKE5 whole entry) above
For assay [5] the target is unchanged. Briefly: Inhibition of human TNIK in human iPSC derived neuronal progenitor cells assessed as reduction in motif phosphorylation at 10 uM after 6 hrs with presence of okadaic acid by Western blot analysis. On the technique in general: A western blot detects proteins with antibodies after separation by electrophoresis.
Target sequence in this assay (Q9UKE5 whole entry, looked up): as the sequence (Q9UKE5 whole entry) above
Assay [6] shares this target. In words: Inhibition of human full length TNIK in HEK293 cells co-transfected with full length SMAD1 up to 30 uM incubated for 2 hrs by ELISA. The class given is cell-based.
Target sequence in this assay (Q9UKE5 whole entry, looked up): as the sequence (Q9UKE5 whole entry) above
In assay [7] the target is T3, Misshapen-like kinase 1 (Homo sapiens, UniProt Q8N4C8). Briefly: Inhibition of human 6His-TEV-Avi-MINK1(1 to 328)-GNS expressed in baculovirus-infected sf21 cells using LRRKtide as substrate preincubated for 30 mins followed by substrate addition and measured after 75 to 90 mins by ADP-Glo Reagent based method.
The target of assay [8] is T3, Misshapen-like kinase 1. Briefly: Inhibition of human full length MINK1(1-1332)-G5-Avi-6His-Flag expressed in baculovirus-infected sf21 cells using His6-SMAD1 as substrate preincubated for 30 mins followed by substrate addition and measured after 120 mins by ADP-Glo Reagent based method.
Assay [9] has as its target T2, Mitogen-activated protein kinase kinase kinase kinase 4. In words: Inhibition of human full length MAP4K4(1-1239)-G5-Avi-6His-Flag expressed in baculovirus-infected sf21 cells using His6-SMAD1 as substrate preincubated for 30 mins followed by substrate addition and measured after 120 mins by ADP-Glo Reagent based method.
Target sequence in this assay (O95819 whole entry): as the sequence (O95819 whole entry) above
Assay [10] has as its target Leucine-rich repeat serine/threonine-protein kinase 2 (Homo sapiens) (UniProt Q5S007). Briefly: Inhibition of LRRK2 (unknown origin) at 0.1 uM relative to control.
Assay [11] concerns the target AP2-associated protein kinase 1 (Homo sapiens) (UniProt Q2M2I8). Briefly: Inhibition of AAK1 (unknown origin) at 0.1 uM relative to control.
For assay [12], the target named is Leucine-rich repeat serine/threonine-protein kinase 2 (Homo sapiens) (UniProt Q5S007). Briefly: Inhibition of full length LRRK2 (unknown origin) at 0.1 uM relative to control.
Assay [13] concerns the target T4, Interleukin-1 receptor-associated kinase 3 (Homo sapiens) (UniProt Q9Y616).
T4 sequence (whole entry): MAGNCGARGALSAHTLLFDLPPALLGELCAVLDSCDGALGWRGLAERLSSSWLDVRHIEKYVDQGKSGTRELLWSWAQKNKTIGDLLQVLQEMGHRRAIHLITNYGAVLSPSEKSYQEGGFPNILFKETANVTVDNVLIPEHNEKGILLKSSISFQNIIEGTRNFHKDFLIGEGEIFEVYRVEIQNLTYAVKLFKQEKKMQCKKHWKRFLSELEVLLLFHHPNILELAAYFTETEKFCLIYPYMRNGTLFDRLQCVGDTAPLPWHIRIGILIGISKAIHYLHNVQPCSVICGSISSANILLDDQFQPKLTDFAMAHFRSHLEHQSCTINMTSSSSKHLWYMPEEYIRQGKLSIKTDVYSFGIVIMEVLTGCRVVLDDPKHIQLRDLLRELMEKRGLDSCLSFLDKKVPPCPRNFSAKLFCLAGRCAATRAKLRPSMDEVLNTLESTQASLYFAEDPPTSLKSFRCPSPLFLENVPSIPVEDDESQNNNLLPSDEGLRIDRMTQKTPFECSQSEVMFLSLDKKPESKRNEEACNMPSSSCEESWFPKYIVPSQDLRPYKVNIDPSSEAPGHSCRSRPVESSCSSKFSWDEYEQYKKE
Briefly: Inhibition of IRAK3 (unknown origin) at 0.1 uM relative to control.

Assay [14] concerns Saccharomyces cerevisiae. In words: Inhibition of Saccharomyces cerevisiae CDC7/DBF4 at 0.1 uM relative to control.
In assay [15] the target is T2, Mitogen-activated protein kinase kinase kinase kinase 4. In words: Inhibition of MAP4K4 (unknown origin) at 0.1 uM relative to control.
For assay [16], the target named is T5, Myosin light chain kinase family member 4 (Homo sapiens) (UniProt Q86YV6).
T5 sequence (whole entry): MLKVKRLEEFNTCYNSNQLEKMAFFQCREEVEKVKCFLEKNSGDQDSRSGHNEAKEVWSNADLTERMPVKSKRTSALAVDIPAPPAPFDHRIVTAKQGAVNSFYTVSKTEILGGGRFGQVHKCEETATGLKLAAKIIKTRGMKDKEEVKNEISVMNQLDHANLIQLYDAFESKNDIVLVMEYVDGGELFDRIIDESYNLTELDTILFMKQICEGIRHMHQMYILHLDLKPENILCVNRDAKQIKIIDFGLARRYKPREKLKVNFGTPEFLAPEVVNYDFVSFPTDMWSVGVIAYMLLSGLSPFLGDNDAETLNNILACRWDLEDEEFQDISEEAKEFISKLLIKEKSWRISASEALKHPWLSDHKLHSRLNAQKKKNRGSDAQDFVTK
Briefly: Inhibition of MYLK4 (unknown origin) at 0.1 uM relative to control.

Assay [17] concerns the target Dual specificity protein kinase CLK4 (Homo sapiens) (UniProt Q9HAZ1). Briefly: Inhibition of CLK4 (unknown origin) at 0.1 uM relative to control.

The source made the active and inactive calls. The rule behind the calls is not given here.

The values below come from ChEMBL document CHEMBL4433232, “Tool inhibitors and assays to interrogate the biology of the TRAF2 and NCK interacting kinase” (Bioorg Med Chem Lett, 2019).

T3 sequence (Q8N4C8 whole entry): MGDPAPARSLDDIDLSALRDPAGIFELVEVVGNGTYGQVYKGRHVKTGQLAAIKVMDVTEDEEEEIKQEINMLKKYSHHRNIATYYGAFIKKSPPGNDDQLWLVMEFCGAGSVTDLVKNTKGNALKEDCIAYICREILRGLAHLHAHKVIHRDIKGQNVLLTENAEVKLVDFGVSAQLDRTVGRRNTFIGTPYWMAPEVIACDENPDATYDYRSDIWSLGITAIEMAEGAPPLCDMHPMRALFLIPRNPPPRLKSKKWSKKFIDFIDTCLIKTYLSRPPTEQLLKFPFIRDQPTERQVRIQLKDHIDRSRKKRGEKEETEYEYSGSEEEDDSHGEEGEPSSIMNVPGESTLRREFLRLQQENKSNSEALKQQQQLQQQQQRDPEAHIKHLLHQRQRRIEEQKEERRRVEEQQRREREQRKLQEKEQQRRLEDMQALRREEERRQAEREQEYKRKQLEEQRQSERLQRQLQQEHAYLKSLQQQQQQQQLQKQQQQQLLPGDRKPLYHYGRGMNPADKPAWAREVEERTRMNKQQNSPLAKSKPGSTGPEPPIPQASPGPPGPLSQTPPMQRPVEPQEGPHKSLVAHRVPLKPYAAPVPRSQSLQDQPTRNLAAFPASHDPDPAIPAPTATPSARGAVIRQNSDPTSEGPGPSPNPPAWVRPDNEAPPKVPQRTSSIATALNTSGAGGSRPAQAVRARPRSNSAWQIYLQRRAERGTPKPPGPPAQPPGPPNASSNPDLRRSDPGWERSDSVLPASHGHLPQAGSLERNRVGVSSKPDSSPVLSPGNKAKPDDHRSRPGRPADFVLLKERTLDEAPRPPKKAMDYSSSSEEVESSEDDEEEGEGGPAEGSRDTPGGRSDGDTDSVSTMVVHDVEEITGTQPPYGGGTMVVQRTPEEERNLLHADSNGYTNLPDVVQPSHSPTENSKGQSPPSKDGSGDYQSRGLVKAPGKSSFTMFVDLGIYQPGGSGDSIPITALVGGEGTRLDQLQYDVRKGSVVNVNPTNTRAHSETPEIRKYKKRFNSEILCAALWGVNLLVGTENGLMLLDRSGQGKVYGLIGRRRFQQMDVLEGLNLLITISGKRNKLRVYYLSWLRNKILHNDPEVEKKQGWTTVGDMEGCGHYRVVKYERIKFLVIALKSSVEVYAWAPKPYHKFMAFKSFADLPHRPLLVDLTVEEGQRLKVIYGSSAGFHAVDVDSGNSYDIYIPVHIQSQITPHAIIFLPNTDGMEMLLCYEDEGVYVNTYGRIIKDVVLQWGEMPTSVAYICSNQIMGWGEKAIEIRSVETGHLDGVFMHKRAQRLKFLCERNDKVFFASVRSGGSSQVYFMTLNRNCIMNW
Chain of AP2-associated protein kinase 1 (Homo sapiens) (Q2M2I8 whole entry, looked up): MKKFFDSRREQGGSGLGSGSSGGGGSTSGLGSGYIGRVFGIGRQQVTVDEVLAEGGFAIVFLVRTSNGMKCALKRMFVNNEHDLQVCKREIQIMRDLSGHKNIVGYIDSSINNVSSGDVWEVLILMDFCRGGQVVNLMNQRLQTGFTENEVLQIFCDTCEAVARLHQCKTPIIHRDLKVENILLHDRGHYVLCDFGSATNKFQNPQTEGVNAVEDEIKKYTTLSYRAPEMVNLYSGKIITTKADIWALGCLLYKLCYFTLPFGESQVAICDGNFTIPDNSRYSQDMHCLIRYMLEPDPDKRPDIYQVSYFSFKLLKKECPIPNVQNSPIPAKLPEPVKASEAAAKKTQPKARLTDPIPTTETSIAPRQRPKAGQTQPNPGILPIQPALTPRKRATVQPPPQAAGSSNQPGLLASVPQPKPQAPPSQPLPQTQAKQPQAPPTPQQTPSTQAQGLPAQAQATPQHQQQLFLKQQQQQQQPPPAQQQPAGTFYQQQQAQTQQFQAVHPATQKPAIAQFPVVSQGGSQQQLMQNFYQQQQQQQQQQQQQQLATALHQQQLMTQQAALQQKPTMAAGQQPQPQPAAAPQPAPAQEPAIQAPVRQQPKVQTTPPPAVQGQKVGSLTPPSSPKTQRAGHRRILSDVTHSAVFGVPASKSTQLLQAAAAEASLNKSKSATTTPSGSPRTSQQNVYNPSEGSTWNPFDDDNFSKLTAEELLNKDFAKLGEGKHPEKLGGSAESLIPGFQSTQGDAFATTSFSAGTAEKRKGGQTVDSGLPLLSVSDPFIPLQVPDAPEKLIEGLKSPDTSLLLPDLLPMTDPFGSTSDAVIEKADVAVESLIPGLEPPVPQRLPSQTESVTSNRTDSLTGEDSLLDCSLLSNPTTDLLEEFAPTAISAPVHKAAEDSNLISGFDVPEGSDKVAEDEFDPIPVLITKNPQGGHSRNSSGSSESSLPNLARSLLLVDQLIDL

A word on the inhibition: it is the change of the read-out against control, counted positive when it falls. As for `Fc1cc(-c2ccc3ccncc3n2)ccn1`, the IC50 in [1] is 5010 nM; in assay [2] (read-out: pIC50 (converted)), more than 31600 nM; in [3] (read-out: pIC50 (converted)), 20000 nM; in assay [4] (read-out: pIC50 (converted)), 15800 nM; in assay [7] (read-out: pIC50 (converted)) it was 25100 nM; in assay [8] it was 3980 nM. Further, the IC50 in assay [9] was 3980 nM. Moreover, the inhibition entry in [5] and in assay [6] was “inactive” each time.

Consider `Nc1ncc(Br)c2ccc(-c3ccnc(F)c3)nc12`, for which the inhibition is 54% in assay [10]; 95% in [11]; 61% in assay [12]; 90% in assay [13]; 56% in assay [14]; 99% in [15]. Also, the inhibition in assay [16] worked out at 73%; in assay [17] it was 51%. Moreover, the IC50 was 7.94 nM in [1]; 1130 nM in assay [2] (read-out: IC50); 31.6 nM in assay [3] (read-out: pIC50 (converted)); 12.6 nM in assay [4] (read-out: pIC50 (converted)); 50.1 nM in assay [7] (read-out: pIC50 (converted)); 12.6 nM in assay [8]. The same molecule had an IC50 in [9] of 20 nM. Moreover, in assay [5], the inhibition result was “Active”.

For the molecule `CC(C)(O)c1cnc(N)c2nc(-c3ccnc(F)c3)ccc12`, the IC50 is 158 nM in assay [3] (read-out: pIC50 (converted)), 126 nM in assay [4] (read-out: pIC50 (converted)) and 200 nM in assay [7] (read-out: pIC50 (converted)).

As for `CS(=O)(=O)c1ccc(-c2cc(-c3ccc(O)cc3)cnc2N)cc1`, the IC50 was 10 nM in [1]; 470 nM in [2] (read-out: IC50); 10 nM in [4] (read-out: pIC50 (converted)); 39.8 nM in assay [7] (read-out: pIC50 (converted)); 15.8 nM in assay [8]. The inhibition entry in assay [5] was “Active”.

For the molecule `CN(C)c1ncc(-c2ccc(O)cc2)cc1-c1ccc(S(C)(=O)=O)cc1`, the IC50 is 3980 nM in assay [1]; more than 31600 nM in assay [2] (read-out: pIC50 (converted)); 15800 nM in assay [3] (read-out: pIC50 (converted)); 3980 nM in assay [4] (read-out: pIC50 (converted)); 20000 nM in assay [7] (read-out: pIC50 (converted)); 6310 nM in assay [8]. In [9], this molecule showed an IC50 of 7940 nM. Besides, the inhibition entry in [5] and in assay [6] was “inactive” throughout.

For `CC(C)NC(=O)c1ccc(-c2cnc(N(C)C)c(-c3ccc(C#N)cc3)c2)cc1`, the IC50 was 25100 nM in assay [1]; more than 31600 nM in assay [2] (read-out: pIC50 (converted)); 20000 nM in assay [3] (read-out: pIC50 (converted)); 25100 nM in assay [4] (read-out: pIC50 (converted)); 25100 nM in assay [7] (read-out: pIC50 (converted)); 63100 nM in assay [8]. Further, the IC50 in assay [9] is 50100 nM. Also, the inhibition result in assay [5] and in assay [6] was “inactive” throughout.

Turning to `CC(C)NC(=O)c1ccc(-c2cnc(N)c(-c3ccc(C#N)cc3)c2)cc1`, the IC50 was 39.8 nM in assay [1]; 930 nM in assay [2] (read-out: IC50); 1260 nM in [2] (read-out: pIC50 (converted)); 12.6 nM in assay [3] (read-out: pIC50 (converted)); 79.4 nM in [4] (read-out: pIC50 (converted)); 126 nM in [7] (read-out: pIC50 (converted)). Further, the IC50 was 39.8 nM in assay [8] and 25.1 nM in assay [9]. Also, the inhibition result in assay [5] is “Active”.

On to `Nc1ncnc2ccc(-c3ccnc(F)c3)nc12`, for which the IC50 in [3] (read-out: IC50) is 150 to 200 nM; in assay [3] (read-out: pIC50 (converted)), 158 nM; in assay [4] (read-out: IC50) it was 150 to 200 nM; in assay [4] (read-out: pIC50 (converted)) it was 158 nM; in assay [7] (read-out: IC50), 150 to 200 nM; in assay [7] (read-out: pIC50 (converted)), 200 nM.
